{"source": "patent US20210022305A1", "about": "“A HUMULUS PLANT VARIANT AND EXTRACTS THEREOF” (BOMI LLC, priority 2018, published 2021)", "system": "VIC cells", "assay": "VIC calcification reduction (Alizarin Red S nodule number and area)", "assay_type": "cell-based, porcine", "experimental": "VIC Isolation and Culture. VICs were isolated from porcine aortic valve leaflets (Hormel, Austin, Minn.) by collagenase digestion and subsequently cultured in growth medium (15% FBS, 2 mM L-glutamine, 100 U/ml penicillin, and 100 µg/ml streptomycin in medium 199) at 37° C., 5% CO2 for two to four passages. VICs used in all experiments were seeded at a density of 50,000 cells/cm^2 onto 24-well or 96-well plates. During the experiments, the VICs were cultured in low-serum medium (1% FBS, 100 U/ml penicillin, 100 µg/ml streptomycin, 2 mM L-glutamine, in medium 199), and the medium was changed each day until the fifth day.\nCulture Substrate Coatings. Tissue culture polystyrene (TCPS) plates (24-well or 96-well) were coated with type I collagen (Coll) (Inamed Biomaterials, Fremont, Calif.; […]), fibronectin (FN, 5 g/cm^2), fibrin (FB, […]), or left untreated (TCPS). For the FB coating, plates were first incubated overnight at 4° C. in fibrinogen (1 mg/mL), followed by three washes with 0.05% Tween 20 in phosphate-buffered saline (PBS) and 1 hour incubation with thrombin (0.6 mg/ml) at 37° C. (Gu et al., “Role of the MAPK/ERK Pathway in Valvular Interstitial Cell Calcification,” American Journal of Physiology—Heart and Circulatory Physiology 296(6):H1748-H1757 (2009), which is hereby incorporated by reference in its entirety). All coatings were prepared in 50 mM bicarbonate coating buffer, pH 8.5, and rinsed three times with PBS before cell seeding. The amounts of adsorbed proteins were measured on separate plates using the bicinchoninic acid protein assay (Pierce, Rockford, Ill.) to verify adsorption of protein coatings.\nQuantification of Nodule Number and Size. After 5 days of culture in the presence or absence of U-0126 or PD-98059, VIC cultures were stained with Alizarin Red S (ARS) to facilitate quantification of calcified nodules, as ARS stains mineralized deposits red. Cultures were fixed with 10% neutral buffered formalin, stored at 4° C. overnight, and stained with a 2% solution of ARS in PBS. Positively stained nodules were manually counted under a microscope (Olympus IX51 with Hamamatsu 285 digital camera and Simple PCI digital imaging software; Compix, Imaging Systems, Cranberry Township, Pa.). Nodule size was measured using ImageJ software (National Institutes of Health), and photomicrographs were captured under 40 and 100 magnifications.\nMultiplate wells containing calcifying VICs from 27 different tissue samples were treated with CBD of 8 different bioactivities, and 5 different mg concentrations, or left untreated. Average calcification was computed using the number of nodules per well, and the average area per nodule. Average total nodule area for untreated wells was 3.27 mm^2 (SD=0.32, min=0.5, max=4.0) per well. All reported percent reductions in calcification were computed by dividing average nodule area of treated wells from 3.27 mm^2. CBD samples were clustered according to their bioactivity levels around the values, 0.20, 0.30, 0.50, 0.60, 0.70, 0.80, 0.90, and 0.95. Mg dosages of 5, 10, 25, 40, and 100 were examined.\nCulture Substrate Coatings. Tissue culture polystyrene (TCPS) plates (24-well or 96-well) were coated with type I collagen (Coll) (Inamed Biomaterials, Fremont, Calif.; […]), fibronectin (FN, 5 g/cm^2), fibrin (FB, 1.5 g/cm^2), or left untreated (TCPS). For the FB coating, plates were first incubated overnight at 4° C. in fibrinogen (1 mg/mL), followed by three washes with 0.05% Tween 20 in phosphate-buffered saline (PBS) and 1 hour incubation with thrombin (0.6 mg/mL) at 37° C. All coatings were prepared in 50 mM bicarbonate coating buffer, pH 8.5, and rinsed three times with PBS before cell seeding. The amounts of adsorbed proteins were measured on separate plates using the bicinchoninic acid protein assay (Pierce, Rockford, Ill.) to verify adsorption of protein coatings. […]", "data": [{"smiles": "C=C(C)C1CCC(C)=CC1c1c(O)cc(CCCCC)cc1O", "note": "(stereo not drawn) [CBD, 2-(6-isopropenyl-3-methyl-2-cyclohexen-l-yl)-5-pentyl-1,3-benzenediol]", "values": [{"measurement": "Calcification reduction, M", "setting": "5 mg, bioactivity .20", "result": 5.17, "unit": "%"}, {"measurement": "Calcification reduction, Max", "setting": "5 mg, bioactivity .20", "result": 6.9, "unit": "%"}, {"measurement": "Calcification reduction, Min", "setting": "5 mg, bioactivity .20", "result": 3.8, "unit": "%"}, {"measurement": "Calcification reduction, M", "setting": "5 mg, bioactivity .30", "result": 6.16, "unit": "%"}, {"measurement": "Calcification reduction, Max", "setting": "5 mg, bioactivity .30", "result": 7.3, "unit": "%"}, {"measurement": "Calcification reduction, Min", "setting": "5 mg, bioactivity .30", "result": 5.2, "unit": "%"}, {"measurement": "Calcification reduction, M", "setting": "5 mg, bioactivity .50", "result": 7.63, "unit": "%"}, {"measurement": "Calcification reduction, Max", "setting": "5 mg, bioactivity .50", "result": 9.1, "unit": "%"}, {"measurement": "Calcification reduction, Min", "setting": "5 mg, bioactivity .50", "result": 5.3, "unit": "%"}, {"measurement": "Calcification reduction, M", "setting": "5 mg, bioactivity .60", "result": 7.99, "unit": "%"}, {"measurement": "Calcification reduction, Max", "setting": "5 mg, bioactivity .60", "result": 10.4, "unit": "%"}, {"measurement": "Calcification reduction, Min", "setting": "5 mg, bioactivity .60", "result": 6.2, "unit": "%"}, {"measurement": "Calcification reduction, M", "setting": "5 mg, bioactivity .70", "result": 10.06, "unit": "%"}, {"measurement": "Calcification reduction, Max", "setting": "5 mg, bioactivity .70", "result": 13.6, "unit": "%"}, {"measurement": "Calcification reduction, Min", "setting": "5 mg, bioactivity .70", "result": 7.3, "unit": "%"}, {"measurement": "Calcification reduction, M", "setting": "5 mg, bioactivity .80", "result": 14.32, "unit": "%"}, {"measurement": "Calcification reduction, Max", "setting": "5 mg, bioactivity .80", "result": 16.6, "unit": "%"}, {"measurement": "Calcification reduction, Min", "setting": "5 mg, bioactivity .80", "result": 11.3, "unit": "%"}, {"measurement": "Calcification reduction, M", "setting": "5 mg, bioactivity .90", "result": 18.06, "unit": "%"}, {"measurement": "Calcification reduction, Max", "setting": "5 mg, bioactivity .90", "result": 21, "unit": "%"}, {"measurement": "Calcification reduction, Min", "setting": "5 mg, bioactivity .90", "result": 14.6, "unit": "%"}, {"measurement": "Calcification reduction, M", "setting": "5 mg, bioactivity .95", "result": 19.42, "unit": "%"}, {"measurement": "Calcification reduction, Max", "setting": "5 mg, bioactivity .95", "result": 22.1, "unit": "%"}, {"measurement": "Calcification reduction, Min", "setting": "5 mg, bioactivity .95", "result": 15.4, "unit": "%"}, {"measurement": "Calcification reduction, M", "setting": "10 mg, bioactivity .20", "result": 4.95, "unit": "%"}, {"measurement": "Calcification reduction, Max", "setting": "10 mg, bioactivity .20", "result": 6.2, "unit": "%"}, {"measurement": "Calcification reduction, Min", "setting": "10 mg, bioactivity .20", "result": 3.7, "unit": "%"}, {"measurement": "Calcification reduction, M", "setting": "10 mg, bioactivity .30", "result": 6.24, "unit": "%"}, {"measurement": "Calcification reduction, Max", "setting": "10 mg, bioactivity .30", "result": 7.5, "unit": "%"}, {"measurement": "Calcification reduction, Min", "setting": "10 mg, bioactivity .30", "result": 4.9, "unit": "%"}, {"measurement": "Calcification reduction, M", "setting": "10 mg, bioactivity .50", "result": 9.77, "unit": "%"}, {"measurement": "Calcification reduction, Max", "setting": "10 mg, bioactivity .50", "result": 11.7, "unit": "%"}, {"measurement": "Calcification reduction, Min", "setting": "10 mg, bioactivity .50", "result": 7.7, "unit": "%"}, {"measurement": "Calcification reduction, M", "setting": "10 mg, bioactivity .60", "result": 11.8, "unit": "%"}, {"measurement": "Calcification reduction, Max", "setting": "10 mg, bioactivity .60", "result": 14.3, "unit": "%"}, {"measurement": "Calcification reduction, Min", "setting": "10 mg, bioactivity .60", "result": 9.2, "unit": "%"}, {"measurement": "Calcification reduction, M", "setting": "10 mg, bioactivity .70", "result": 14.33, "unit": "%"}, {"measurement": "Calcification reduction, Max", "setting": "10 mg, bioactivity .70", "result": 17.2, "unit": "%"}, {"measurement": "Calcification reduction, Min", "setting": "10 mg, bioactivity .70", "result": 10.2, "unit": "%"}, {"measurement": "Calcification reduction, M", "setting": "10 mg, bioactivity .80", "result": 20.03, "unit": "%"}, {"measurement": "Calcification reduction, Max", "setting": "10 mg, bioactivity .80", "result": 24.6, "unit": "%"}, {"measurement": "Calcification reduction, Min", "setting": "10 mg, bioactivity .80", "result": 15.9, "unit": "%"}, {"measurement": "Calcification reduction, M", "setting": "10 mg, bioactivity .90", "result": 25.04, "unit": "%"}, {"measurement": "Calcification reduction, Max", "setting": "10 mg, bioactivity .90", "result": 30.3, "unit": "%"}, {"measurement": "Calcification reduction, Min", "setting": "10 mg, bioactivity .90", "result": 20.5, "unit": "%"}, {"measurement": "Calcification reduction, M", "setting": "10 mg, bioactivity .95", "result": 25.56, "unit": "%"}, {"measurement": "Calcification reduction, Max", "setting": "10 mg, bioactivity .95", "result": 32.5, "unit": "%"}, {"measurement": "Calcification reduction, Min", "setting": "10 mg, bioactivity .95", "result": 18.5, "unit": "%"}, {"measurement": "Calcification reduction, M", "setting": "25 mg, bioactivity .20", "result": 6.07, "unit": "%"}, {"measurement": "Calcification reduction, Max", "setting": "25 mg, bioactivity .20", "result": 7.1, "unit": "%"}, {"measurement": "Calcification reduction, Min", "setting": "25 mg, bioactivity .20", "result": 4.8, "unit": "%"}, {"measurement": "Calcification reduction, M", "setting": "25 mg, bioactivity .30", "result": 6.23, "unit": "%"}, {"measurement": "Calcification reduction, Max", "setting": "25 mg, bioactivity .30", "result": 8.1, "unit": "%"}, {"measurement": "Calcification reduction, Min", "setting": "25 mg, bioactivity .30", "result": 4.6, "unit": "%"}, {"measurement": "Calcification reduction, M", "setting": "25 mg, bioactivity .50", "result": 10.89, "unit": "%"}, {"measurement": "Calcification reduction, Max", "setting": "25 mg, bioactivity .50", "result": 12.5, "unit": "%"}, {"measurement": "Calcification reduction, Min", "setting": "25 mg, bioactivity .50", "result": 9.5, "unit": "%"}, {"measurement": "Calcification reduction, M", "setting": "25 mg, bioactivity .60", "result": 13.75, "unit": "%"}, {"measurement": "Calcification reduction, Max", "setting": "25 mg, bioactivity .60", "result": 15.3, "unit": "%"}, {"measurement": "Calcification reduction, Min", "setting": "25 mg, bioactivity .60", "result": 10.5, "unit": "%"}, {"measurement": "Calcification reduction, M", "setting": "25 mg, bioactivity .70", "result": 16.55, "unit": "%"}, {"measurement": "Calcification reduction, Max", "setting": "25 mg, bioactivity .70", "result": 18.6, "unit": "%"}, {"measurement": "Calcification reduction, Min", "setting": "25 mg, bioactivity .70", "result": 14.3, "unit": "%"}, {"measurement": "Calcification reduction, M", "setting": "25 mg, bioactivity .80", "result": 24.94, "unit": "%"}, {"measurement": "Calcification reduction, Max", "setting": "25 mg, bioactivity .80", "result": 30.3, "unit": "%"}, {"measurement": "Calcification reduction, Min", "setting": "25 mg, bioactivity .80", "result": 20.2, "unit": "%"}, {"measurement": "Calcification reduction, M", "setting": "25 mg, bioactivity .90", "result": 30.51, "unit": "%"}]}]}
